From patent publication US8198302B2 (OXiGENE, Inc., priority 2004, dated 2012) come the findings set out here.

In assay [1] the target is T1, Horseradish peroxidase (HRP) (Armoracia rusticana, UniProt P00433).
T1 construct: purchased Sigma P6782
T1 sequence (P00433 31-338 limits assumed): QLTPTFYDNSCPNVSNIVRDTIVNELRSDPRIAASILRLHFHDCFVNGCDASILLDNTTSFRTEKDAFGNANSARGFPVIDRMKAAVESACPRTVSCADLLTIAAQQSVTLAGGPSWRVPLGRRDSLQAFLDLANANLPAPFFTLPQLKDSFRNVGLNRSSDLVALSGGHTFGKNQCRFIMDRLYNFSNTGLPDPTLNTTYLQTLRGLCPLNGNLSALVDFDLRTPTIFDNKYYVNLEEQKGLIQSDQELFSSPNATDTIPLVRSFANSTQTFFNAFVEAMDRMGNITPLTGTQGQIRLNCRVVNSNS
The assay is described as follows: Peroxidase-mediated activation of catechols (HPLC loss of peak area). It is filed as biochemical. Particulars: for Relative Activation (% Control): relative to non-catechol control = 100; for Slope/Hrp: slope divided by HRP concentration (ug/ml): corrected disappearance. The procedure:
Methods: catechols were dissolved in DMSO immediately prior to assay (10 mM). HRP (Sigma, P6782, 1000 units/mg), was dissolved in phosphate buffered saline (PBS) at a concentration of 40 ug/ml. Fresh hydrogen peroxide (50 mM) was prepared from a 30% w/w solution (Sigma, H1009). Incubations were carried out in a water bath maintained at 37° C. Exact volumes varied depending on the catechol, but typically they comprised 1.92 ml PBS, 20 μl DMSO, 20 μl hydrogen peroxide and 20 μl drug in a 4 ml amber glass vial. Prior to addition of the drug, the vial was pre-incubated for 10 min. The reaction was initiated by the addition of 20 μl HRP. Samples (100 μl) were then removed at intervals, added to 100 μl acetonitrile and placed on ice. At the end of the incubation, samples were centrifuged (12000 g, 1 min) to remove precipitated protein and the supernatants placed in polypropylene hplc vials for analysis. Control incubations containing no HRP were carried out in the same way.
HPLC was performed using a Waters 2695 Separations Module with a sample compartment maintained at 10° C., and a Waters 2996 Photodiode Array Detector. The column was an ACE C18, 3 μm particle size, 125×3 mm (Hichrom) maintained at 30° C. Compounds were eluted with varying proportions of A: 5 mM KH2PO4, 5 mM H3PO4, and B: 75% acetonitrile, 25% water at a flow rate of […], in order to achieve a similar starting peak area for each catechol. Occasionally, in order to achieve a better resolution of the products, the latter was replaced with 100% methanol. Spectral data was collected from 220 nm to 500 nm, sampling rate 2/sec, 1.2 nm resolution. Data was analysed using Waters Millennium software.
Results: The loss of peak area at 300 nm of the prodrug was plotted against time, and a straight line fitted to the data. Loss of peak area was used to approximate the relative rates of loss of each catechol. The slope of the line-of-best-fit was then divided by the HRP concentration to give a corrected disappearance (see Table 3).

In a further assay the test system is tumor cells. The assay is described as follows: Tumor cell cytotoxicity, MTT assay. It is filed as cell-based. Particulars: tumor cells treated for 24 hours. The procedure:
Exponentially growing tumor cells were treated with the following compounds for 24 hours. Insoluble compounds were formulated in a small amount (0.3%) of DMSO for biological evaluation. Cell viability was determined by the calorimetric MTT assay using 3(4,5-dimethylthiazol-2-yl)-2,5-diphenyl-2H-tetrazolium bromide according to well-established procedures (see Berridge, et al. (1996) for a general protocol of this type of assay).

The subject of another assay is MHEC-5T tumors. The assay is described as follows: Reduction in tumor blood flow / functional tumor vessels (fluorescent beads). The assay is classed as in vivo, mice. The note with it: for Blood Flow at 10 mg/kg (% vessel area of control): MHEC-5T tumor-bearing SCID mice, 24 hours after dosing. Here is the method:
(§1) Catechols were dissolved in 50% DMSO (2 mg/kg) prior to intravenous (iv) administration (i.v.) to tumor-bearing mice. MHEC-5T tumors were established by subcutaneous injection of 0.5×10^6 cultured MHEC5-T cells (German Collection of Microorganisms and Cell Culture, Braunschweig, Germany) into the right flank of Fox Chase CB-17 severe combined immunodeficient (SCID) mice. Tumor grafts grew palpable within one week and reached the limited size (15×15 mm) within 10 days. Tumor bearing mice were injected intraperitoneally with saline control or various dosages of CA1P or CA4P after the transplanted tumor reached a size of 300 mm^3 (a size without development of necrosis). Twenty-four hours later they were injected with 0.25 ml of fluorescent FluoSphere beads (0.1 μm beads conjugated with blue fluorescent tag (F-8789, Molecular Probes, Eugene, Oreg.) and diluted 1:6 in physiological saline) in the tail vein, and sacrificed after 3 minutes. Tumors were then excised for cryosections. Cryosections of 8 μm thickness were directly examined under a fluorescent microscope. Functional blood vessels were indicated by blue fluorescence from injected microbeads. For quantification, three sections from three tumors treated in each group were examined and in each section, more than 70% of the area was automatically recorded with a microscopic digital camera at ×10 magnification. A computer program named Stage Pro (Media Cybernetics, Md.) was used to control the picture recording. Image analysis was performed with Image Plus software (Media Cybernetics, Md.). The results were expressed as vessel area per mm^2 in percentage of the control in Table 2.
as §1, with “The effect of CA1P on tumor blood flow was evaluated by quantifying the number of functional tumor vessels” for “Catechols were dissolved”, “treated murine tumors.” for “50% DMSO (2 mg/kg) prior to intravenous (iv) administration (i.v.) to tumor-bearing mice.”, “as in Example 4c.” for “by subcutaneous injection of 0.5×10^6 cultured MHEC5-T cells (German Collection of Microorganisms and Cell Culture, Braunschweig, Germany) into the right flank of Fox Chase CB-17 severe combined immunodeficient (SCID) mice. Tumor grafts grew palpable within one week and reached the limited size (15×15 mm) within 10 days.”, “MD)” for “Md.)”, “MD).” for “Md.).”, “control.” for “control in Table 2.”

Assay [2] deals with murine adenocarcinoma CaNT. Description: Functional vascular volume of tumor vessels (Hoechst 333342). It is filed as in vivo, mice. Here is the method: The effect of CA1P on tumor blood flow was evaluated by quantification of the functional volume of tumor vessels in treated murine tumors using a procedure previously described in detail and incorporated by reference herein (Smith K A, Br. J. Cancer, 57:247-253, 1988). The murine adenocarcinoma CaNT was grown subcutaneously on the back of 12- to 16-week old CBA/Gy fTO mice. Tumors were initiated by the injection of 0.05 ml of a crude tumor cell suspension prepared from a donor mouse. Animals were selected for treatment after 3 or 4 weeks, when tumors had reached a geometric mean diameter of 5 to 6.5 mm. CA1P and CA4P were dissolved in 0.9% saline at various concentrations and injected intraperitoneally into tumor bearing mice. Each treatment group consisted of between five and nine mice. A control treatment group was injected with 0.9% saline. At 24 hours post-injection, each mouse was injected intravenously with a 10 mg/kg dose of the fluorescent DNA-binding dye Hoechst 333342 and sacrificed 1 minute later. Tumors were immediately excised and bisected. Frozen tumor sections were cut at three levels and viewed under UV excitation where the fluorescent staining of perivascular cells identified perfused vessels. Vascular volumes were quantified based on a random point scoring system previously described and incorporated by reference herein (Chalkley H W, J. Natl Cancer Institute, 4: 47-53, 1943). All estimates were based on counting 100 fields from sections cut at each of the 3 different levels and the calculated vascular volumes were expressed as a percentage of the mean value for control tumors.

For assay [3], the system named is murine adenocarcinoma CaNT. The assay is described as follows: Tumor growth control in CaNT murine tumor model. The assay is classed as in vivo, mice. Particulars: single doses of 100, 200, and 400 mg/kg i.p., FIG. 5. Here is the method:
The murine adenocarcinoma CaNT was grown subcutaneously on the back of 12- to 16-week old CBA/Gy fTO mice. Tumors were initiated by the injection of 0.05 ml of a crude tumor cell suspension prepared from a donor mouse. Animals were selected for treatment after 3 or 4 weeks, when tumors had reached a geometric mean diameter of 5 to 6.5 mm. CA1P and CA4P were dissolved in 0.9% saline at various concentrations and injected intraperitoneally into tumor bearing mice. Each treatment group consisted of between five and nine mice. A control treatment group was injected with 0.9% saline.

A further assay deals with Purified tubulin. The assay is described as follows: Inhibition of tubulin polymerization (turbidimetric, 350 nm). The assay is classed as biochemical. Particulars: purified tubulin 1 mg/ml, read-out: Tubulin Binding (uM IC50). The procedure:
The method of Verdier-Pinard (1998, Molec. Pharmacol. 53, 62-76) was used to assay catechol compounds for inhibition of tubulin polymerization. Tubulin polymerization was followed turbidimetrically at 350 nm on an Agilent 8453 spectrophotometer equipped with a kinetics program, a jacketed cell holder, and two microprocessor-controlled water baths. Purified tubulin (1 mg/ml) was induced to polymerize in a monosodium glutamate/GTP solution by a jump in temperature. Absorbance was recorded every 10 seconds and the data was analyzed by a GraphPad Prism program.

Turning to `COc1cc(/C=C\c2ccc(F)c(O)c2O)cc(OC)c1OC`, in assay [1], the “Relative Activation (% Control)” value is reported as 0.006 % Control and the Slope/Hrp is recorded as −6675900. In addition, it took 0.546 µM to reach half-maximal inhibition in the assay on tumor cells (24 h) (IC50).

Turning to `COc1cc(/C=C\c2ccc(O)c(O)c2O)cc(OC)c1OC`, the “Blood Flow at 10 mg/kg (% vessel area of control)” value with MHEC-5T tumors is given as 26.7 % vessel area of control. The same compound returned an IC50 in the assay on tumor cells (24 h) of 0.069 µM.

`COc1cc(/C=C\c2ccc([N+](=O)[O-])c(O)c2O)cc(OC)c1OC` registered a Slope/Hrp in assay [1] of −1902300. The IC50 in the assay on tumor cells (24 h) worked out at 0.28 µM.

Take `C=CCOc1ccc(/C=C\c2cc(OC)c(OC)c(OC)c2)c(O)c1O`: the “Blood Flow at 10 mg/kg (% vessel area of control)” value in the assay on MHEC-5T tumors is 60 % vessel area of control. The Slope/Hrp in assay [1] was −16925. Moreover, the IC50 in the assay on tumor cells (24 h) came out at 0.007 µM.

As for `COc1ccc(/C=C\c2cc(OC)c(OC)c(OC)c2)cc1OP(=O)([O-])[O-].[Na+].[Na+]` [CA4P, Combretastatin A-4 Disodium Phosphate Prodrug, reference compound], in the assay with MHEC-5T tumors (functional vessel number per mm^2, i.p., 24 hr, MHEC-5T tumors), the “ED50 (vascular effect)” value is 43 mg/kg. In addition, in the assay with MHEC-5T tumors (spatial distribution of blood vessel shutdown), the “blood flow in the central region of tumors” value is on record as “blood flow reduction”. In assay [2] (doses below 50 mg/kg i.p.), the “effect on vascular volume” value is recorded as “no significant effect”. The “dose required to produce an effect similar to that of 1 mg/kg of CA1P” value in assay [2] (functional vascular volume) is reported as 25 mg/kg. Further, the “effect on tumor growth” value in assay [3] is on record as “no measurable effect on tumor growth”.

`COc1cc(/C=C\c2cccc(OP(=O)([O-])[O-])c2OP(=O)([O-])[O-])cc(OC)c1OC.[Na+].[Na+].[Na+].[Na+]` [ZSB-36, 2′,3′diphosphate-3,4,5-trimethoxy-(Z)-stilbene, tetrasodium salt]: the “Blood Flow at 10 mg/kg (% vessel area of control)” value in the assay on MHEC-5T tumors was 94 % vessel area of control. In the assay on tumor cells, this compound displayed an IC50 of 0.4 µM.

On to `COc1cc(/C=C\c2cc(Br)cc(O)c2O)cc(OC)c1OC` [ZSB-74, 4-Bromo-6-[(Z)-2-(3,4,5-trimethoxyphenyl)vinyl]-1,2-dihydroxybenzene], for which, in assay [1], the “Relative Activation (% Control)” value worked out at 0.203 % Control and the Slope/Hrp was −182825. Moreover, in the assay with Purified tubulin, the IC50 stood at 2.1 µM. For the same compound, the IC50 in the assay on tumor cells (24 h) amounted to 0.34 µM.

Turning to `COc1cc(/C=C\c2ccc(C)c(O)c2O)cc(OC)c1OC` [ZSB-75, 3-Methyl-6-[(Z)-2-(3,4,5-trimethoxyphenyl)vinyl]-1,2-dihydroxybenzene], in assay [1], the “Relative Activation (% Control)” value worked out at 1.703 % Control and the Slope/Hrp was −21783. Also, inhibition with tumor cells (24 h) was half-maximal at 0.9 µM (IC50).

With `CCc1ccc(/C=C\c2cc(OC)c(OC)c(OC)c2)c(O)c1O` [ZSB-76, 3-Ethyl-6-[(Z)-2-(3,4,5-trimethoxyphenyl)vinyl]-1,2-dihydroxybenzene], in assay [1], the “Relative Activation (% Control)” value amounted to 6.743 % Control and the Slope/Hrp was −5502. For the same compound, in the assay with tumor cells (24 h), 0.542 µM corresponded to half-maximal inhibition (IC50).

For the compound `C=CCc1ccc(/C=C\c2cc(OC)c(OC)c(OC)c2)c(O)c1O` [ZSB-77, 3-Allyl-6-[(Z)-2-(3,4,5-trimethoxyphenyl)vinyl]-1,2-dihydroxybenzene], in assay [1], the “Relative Activation (% Control)” value was 1.875 % Control and the Slope/Hrp is on record as −19783. The 50% inhibitory concentration (IC50) with tumor cells (24 h) was determined as 0.748 µM.

With `COc1cc(/C=C\c2cc(-c3ccccc3)cc(O)c2O)cc(OC)c1OC` [ZSB-80, 4-Phenyl-6-[(Z)-2-(3,4,5-trimethoxyphenyl)vinyl]-1,2-dihydroxybenzene], in assay [1], the “Relative Activation (% Control)” value stood at 0.017 % Control and the Slope/Hrp is reported as −2158250. The same compound returned an IC50 in the assay with tumor cells of 1.56 µM.

In the case of `CCOc1ccc(/C=C\c2cc(OC)c(OC)c(OC)c2)c(O)c1O` [ZSB-81], in the assay on tumor cells, 0.094 µM corresponded to half-maximal inhibition (IC50).

`COc1cc(/C=C\c2cccc(O)c2O)cc(OC)c1OC` [ZSB-82, 6-[(Z)-2-(3,4,5-Trimethoxyphenyl)vinyl]-1,2-dihydroxybenzene]: in assay [1], the “Relative Activation (% Control)” value is listed as 0.029 % Control and the Slope/Hrp is −1269800. For the same compound, the IC50 in the assay on Purified tubulin worked out at 6.2 µM. Besides, the IC50 in the assay on tumor cells (24 h) came out at 0.143 µM.
